Test systems include UACC-257 melanoma; HCC-2998 colon; HT29 colon; SF-295 CNS; MDA-MB-435; A498 renal; NCI-H226 lung; SK-MEL-5 melanoma; K-562 leukemia; HOP-62 NSCLC.
Holding throughout (assay): DTP human tumour cell line panel, 48 h

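Following 48 hours of exposure in 96-well plates, responses at five concentrations were used to interpolate endpoints linearly. GI50 is the concentration that inhibits growth by half. TGI denotes the concentration required for complete inhibition of growth.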 Bounds are passed on as bounds.

As a reminder, the GI50 is the concentration that inhibits growth by half. Usually TGI stands for the concentration at which net growth stops. A higher TGI goes with lower sensitivity of the cells. For `COc1cc(OC)cc(-c2cncn2-c2ccc(-c3nc4cc(OC)c(OC)c(OC)c4s3)cc2)c1`, the GI50 with UACC-257 melanoma is 20.5 µM; with HCC-2998 colon, above 100 µM; with HT29 colon, 8.33 µM; with SF-295 CNS, 3.64 µM; in the experiment with MDA-MB-435, 6.07 µM; in the experiment with A498 renal, above 100 µM. Besides, the GI50 in the experiment on NCI-H226 lung is 21.7 µM; with SK-MEL-5 melanoma, 2.85 µM; in the experiment with K-562 leukemia, 3.57 µM; in the experiment on HOP-62 NSCLC it was 26.4 µM. In addition, the TGI in the experiment on UACC-257 melanoma is above 100 µM; in the experiment on HCC-2998 colon it was above 100 µM; with HT29 colon it was above 100 µM; in the experiment on SF-295 CNS it was 52.9 µM; in the experiment with MDA-MB-435, above 100 µM; with A498 renal, above 100 µM. Further, the total growth inhibition concentration (TGI) in the experiment on NCI-H226 lung, with SK-MEL-5 melanoma, in the experiment with K-562 leukemia and in the experiment on HOP-62 NSCLC was above 100 µM throughout.
With `C=C1C(=O)OC2/C=C(\C)C3OC3/C=C(/C(=O)OC)C(OC(C)=O)C(OC(=O)C(C)(O)C(C)OC(C)=O)C12` (stereo not given), the TGI in the experiment on UACC-257 melanoma is 2.34 µM; in the experiment with HCC-2998 colon, 14.4 µM; with HT29 colon it was 2.88 µM; in the experiment on SF-295 CNS, 21.5 µM; with MDA-MB-435, 4.84 µM; with A498 renal, 11.5 µM. Further, the concentration for total growth inhibition (TGI) with NCI-H226 lung worked out at 15.7 µM; with SK-MEL-5 melanoma it was 7.09 µM; in the experiment on K-562 leukemia, 17.1 µM; in the experiment with HOP-62 NSCLC it was 37.5 µM.
For `COc1ccc(CC2C3=C(CCCC3)CCN2C)cc1` (stereo not given), the total growth inhibition concentration (TGI) in the experiment on UACC-257 melanoma, in the experiment on HCC-2998 colon, with HT29 colon, in the experiment on SF-295 CNS, in the experiment with MDA-MB-435 and in the experiment on A498 renal was above 100 µM in each case. In addition, the concentration for total growth inhibition (TGI) with NCI-H226 lung, in the experiment with SK-MEL-5 melanoma, in the experiment with K-562 leukemia and in the experiment with HOP-62 NSCLC was above 100 µM throughout.
Turning to `CNC1C(OC2C(OC3C(O)C(O)C(O)C(O)C3O)OC(C)C2(O)CO)OC(CO)C(O)C1O` (stereo not given) (tested in a mixture with another compound), the TGI in the experiment on UACC-257 melanoma, in the experiment on HCC-2998 colon, in the experiment on HT29 colon, in the experiment with SF-295 CNS, in the experiment on MDA-MB-435 and with A498 renal was above 100 µM in each case. For the same compound, the TGI with NCI-H226 lung, in the experiment with SK-MEL-5 melanoma, with K-562 leukemia and with HOP-62 NSCLC was above 100 µM throughout.
Turning to `Cc1ccc(S(=O)(=O)n2cc(-c3nnnn3-c3ccc(Cl)cc3)c(=O)c3ccccc32)cc1`, the GI50 in the experiment with UACC-257 melanoma was above 100 µM; with HCC-2998 colon it was above 100 µM; in the experiment with HT29 colon, 57.7 µM; with SF-295 CNS, 52.9 µM; in the experiment on MDA-MB-435, above 100 µM; in the experiment with A498 renal it was 77.3 µM. Moreover, the GI50 in the experiment with NCI-H226 lung was above 100 µM; with SK-MEL-5 melanoma, 70.6 µM; in the experiment with K-562 leukemia, 20.1 µM; in the experiment with HOP-62 NSCLC, 73.6 µM. Further, the TGI with UACC-257 melanoma, with HCC-2998 colon, in the experiment on HT29 colon, in the experiment with SF-295 CNS, in the experiment on MDA-MB-435 and in the experiment on A498 renal was above 100 µM throughout. The TGI in the experiment with NCI-H226 lung, in the experiment on SK-MEL-5 melanoma, in the experiment on K-562 leukemia and in the experiment with HOP-62 NSCLC was above 100 µM in each case.
Consider `O=C(/C=C/c1cccnc1)c1ccccc1O`, for which the GI50 with UACC-257 melanoma was 25.4 µM; in the experiment with HCC-2998 colon, 16.2 µM; with HT29 colon it was 21.4 µM; in the experiment with SF-295 CNS, 16.6 µM; with MDA-MB-435 it was 16.4 µM; in the experiment with A498 renal, 15.2 µM. For the same compound, the GI50 in the experiment on NCI-H226 lung was 20 µM; with SK-MEL-5 melanoma, 16.1 µM; with K-562 leukemia, 20.9 µM; with HOP-62 NSCLC it was 17.5 µM. The concentration for total growth inhibition (TGI) was found to be 60.3 µM in the experiment with UACC-257 melanoma; 30 µM with HCC-2998 colon; 58.7 µM with HT29 colon; 41.7 µM in the experiment with SF-295 CNS; 37 µM in the experiment with MDA-MB-435; 31.4 µM in the experiment on A498 renal. Moreover, the TGI amounted to 51.7 µM with NCI-H226 lung, 31.1 µM in the experiment with SK-MEL-5 melanoma, 80 µM in the experiment on K-562 leukemia and 45.5 µM with HOP-62 NSCLC.
Turning to `CCc1ccc(Nc2cc(C)nc3nc(C)nn23)cc1`, the GI50 was above 100 µM in the experiment with UACC-257 melanoma; above 100 µM in the experiment on HCC-2998 colon; 39.8 µM in the experiment on HT29 colon; 78.2 µM in the experiment with SF-295 CNS; 53.8 µM with MDA-MB-435; 0.533 µM in the experiment on A498 renal. Further, the GI50 with NCI-H226 lung is 85 µM; in the experiment on SK-MEL-5 melanoma it was 32.9 µM; in the experiment on K-562 leukemia, 35.5 µM; in the experiment on HOP-62 NSCLC, above 100 µM. Besides, the TGI in the experiment with UACC-257 melanoma is above 100 µM; in the experiment with HCC-2998 colon it was above 100 µM; with HT29 colon, above 100 µM; in the experiment on SF-295 CNS, above 100 µM; in the experiment on MDA-MB-435, above 100 µM; with A498 renal, 78.7 µM. Also, the TGI in the experiment on NCI-H226 lung, with SK-MEL-5 melanoma, in the experiment with K-562 leukemia and in the experiment on HOP-62 NSCLC was above 100 µM in each case.
`C[C@]12CC[C@H]3[C@@H](C[C@@H]4N=C(c5ccc(O)cc5)S[C@@]45C[C@H](O)CC[C@]35C)[C@@H]1CC[C@@H]2O`: the GI50 in the experiment on UACC-257 melanoma is 19.1 µM; in the experiment on HCC-2998 colon, 31.9 µM; with HT29 colon, 3.13 µM; in the experiment with SF-295 CNS, 0.413 µM; with MDA-MB-435 it was 16.4 µM; with A498 renal, 3.51 µM. Moreover, the GI50 was 27.4 µM in the experiment on NCI-H226 lung, 3.15 µM with SK-MEL-5 melanoma, 3.48 µM with K-562 leukemia and 5.26 µM with HOP-62 NSCLC. For the same compound, the concentration for total growth inhibition (TGI) with UACC-257 melanoma was above 100 µM; with HCC-2998 colon, above 100 µM; in the experiment on HT29 colon, 20.4 µM; in the experiment on SF-295 CNS, 2.03 µM; with MDA-MB-435, above 100 µM; with A498 renal it was 21.3 µM. Moreover, the TGI is above 100 µM in the experiment with NCI-H226 lung, 13.1 µM in the experiment with SK-MEL-5 melanoma, above 100 µM in the experiment on K-562 leukemia and 50.5 µM in the experiment on HOP-62 NSCLC.
On to `O=[N+]([O-])c1ccc(-c2cn(-c3ccc(Cl)cc3)cn2)cc1`, for which the TGI in the experiment on UACC-257 melanoma is above 100 µM; in the experiment on HCC-2998 colon it was above 100 µM; with HT29 colon, above 100 µM; in the experiment with SF-295 CNS, 36.9 µM; with MDA-MB-435, above 100 µM; with A498 renal, above 100 µM. Also, the TGI is above 100 µM in the experiment on NCI-H226 lung, above 100 µM in the experiment with SK-MEL-5 melanoma, above 100 µM with K-562 leukemia and 34.6 µM in the experiment with HOP-62 NSCLC.

These data come from PubChem BioAssay (NCI).
